# Read-outs that look alike come from different tables or passages of the source.
# How the values were obtained:
# Assay type in all cases: biochemical
# [1] = tested on: endogenous proteases; test: Stability of synthetic BNP-32 spiked into normal human plasma with protease inhibitors (chemiluminescent BNP immunoassay); conditions: for 1 week (RLU) / 2 weeks (RLU) / 4 weeks % Signal Recovered / 4 weeks (RLU) / 72 hrs (RLU) / 22 days (RLU) / Day 0 (RLU): IHPP + 10 ng/ml BNP, 4° C., AEBSF 200 μg/ml, antipain 100 μg/ml, benzamidine 14 mM, PPACK 50 μg/ml, or all four; for efficacy in stabilizing BNP (in words): Table 11, inhibitors at usual functional concentrations
# [2] = tested on: endogenous proteases; test: Stability of spiked synthetic BNP in normal human serum with inhibitors; conditions: HS; for Recovery versus 1st run: 48 hours at 4° C.
# From the text: (§1) To generate an analytical signal to quantify the BNP concentration in the sample, two monoclonal BNP-specific antibodies (Shionogi & Co., LTD, Osaka, Japan; EP542255A1/B1; JP 3297392) were used. The first antibody was labeled with acridinium ester (AE) and the second antibody was labeled with biotin. The two antibodies bind to BNP molecules present in the plasma samples to form a complex; the formed complex was captured by paramagnetic particles (PMP) coated with streptavidin. PMP was separated by magnetic field and washed to remove non-specifically bound material. BNP-AE complexes retained on the PMP were treated with alkaline solution to produce a chemiluminescent signal, which was proportional to the amount of BNP captured; the signal was measured in relative light units or “RLU”. The assay was carried out on an automated chemiluminescent system ADIVA:Centaur™ (Bayer Corporation, Tarrytown, N.Y.) using BNP detection reagents, such as have been described. (e.g., B. Bluestein et al., 2002, “Development of an automated test for BNP as an aid in the diagnosis and evaluation of CHF on the Bayer ADVIA Centaur ACS”, Clinical Chemistry, 48(S6):A85, Abstract C37).
# (§2) Experiments were performed to assess BNP stabilization in animal serum and human serum versus human plasma. Tables 9 and 10 below illustrate the efficacy of PPACK and leupeptin as BNP stabilizers in three different media, namely, bovine fetal serum (Biocell Labs, Rancho Dominguez, Calif.), normal human serum (Biocell Labs), and normal human plasma (Intergen).
# [3] = tested on: endogenous proteases; test: Stability of spiked synthetic BNP in bovine fetal serum with inhibitors; conditions: BFS; for Recovery versus 1st run: 48 hours at 4° C.
# From the text: as §1, §2
# [4] = HP, spiked synthetic BNP, leupeptin 0.5 μg/ml
# [5] = HP, spiked synthetic BNP, leupeptin 5 μg/ml
# [6] = HP, spiked synthetic BNP, leupeptin 50 μg/ml
# [7] = IHP (EDTA) with synthetic BNP-32 added, each inhibitor 50 μg/ml
# [8] = Plasma A, spiked synthetic BNP, inhibitor 0.62 μg/ml
# [9] = Plasma A, spiked synthetic BNP, inhibitor 1.85 μg/ml
# [10] = Plasma A, spiked synthetic BNP, inhibitor 5.56 μg/ml
# [11] = Plasma A, spiked synthetic BNP, inhibitor 16.7 μg/ml
# [12] = Plasma A, spiked synthetic BNP, inhibitor 50 μg/ml
molecule,measurement,setting,value
"NCCc1ccc(S(=O)(=O)F)cc1 [AEBSF, 4-(2-aminoethyl)benzenesulfonylfluoride]",% Recovery vs 1st run (Time 0),[1],85.2%
same,"BNP, 1st run (Time 0)",[1],741.7 pg/mL
same,"BNP, 3 hours at 4° C.",[1],768.6 pg/mL
same,"BNP, 17 hours at 4° C.",[1],715.2 pg/mL
same,"BNP, 40 hours at 4° C.",[1],735.7 pg/mL
same,"BNP, 6 days at 4° C.",[1],631.9 pg/mL
same,1 week (RLU),[1],2504809 RLU
same,2 weeks (RLU),[1],4241 RLU
same,4 weeks % Signal Recovered,[1],0.1%
same,4 weeks (RLU),[1],2434 RLU
same,72 hrs (RLU),[1],3249767 RLU
same,22 days (RLU),[1],3812 RLU
same,Day 0 (RLU),[1],4079471 RLU
same,efficacy in stabilizing BNP (in words),[1],intermediate efficacy
"NC(N)=NCCC[C@H](NC(=O)[C@@H]1CCCN1C(=O)[C@H](N)Cc1ccccc1)C(=O)CCl [PPRACK, D-Phe-Pro-Arg-chloromethylketone]",% Recovery vs 1st run (Time 0),[1],100.5%
same,"BNP, 1st run (Time 0)",[1],892.0 pg/mL
same,"BNP, 3 hours at 4° C.",[1],894.6 pg/mL
same,"BNP, 17 hours at 4° C.",[1],957.6 pg/mL
same,"BNP, 40 hours at 4° C.",[1],939.7 pg/mL
same,"BNP, 6 days at 4° C.",[1],896.2 pg/mL
same,efficacy in stabilizing BNP (in words),[1],"act as efficiently as antipain, leupeptin and PPACK"
N=C(N)c1ccccc1 [benzamidine],% Recovery vs 1st run (Time 0),[1],82.6%
same,"BNP, 1st run (Time 0)",[1],830.6 pg/mL
same,"BNP, 3 hours at 4° C.",[1],806.8 pg/mL
same,"BNP, 17 hours at 4° C.",[1],860.5 pg/mL
same,"BNP, 40 hours at 4° C.",[1],813.8 pg/mL
same,"BNP, 6 days at 4° C.",[1],686.3 pg/mL
same,1 week (RLU),[1],2568730 RLU
same,2 weeks (RLU),[1],238972 RLU
same,4 weeks % Signal Recovered,[1],0.8%
same,4 weeks (RLU),[1],30024 RLU
same,72 hrs (RLU),[1],3342787 RLU
same,22 days (RLU),[1],108308 RLU
same,Day 0 (RLU),[1],3927159 RLU
same,efficacy in stabilizing BNP (in words),[1],intermediate efficacy
"CC(=O)N[C@@H](CC(C)C)C(=O)N[C@@H](CC(C)C)C(=O)N[C@H](C=O)CCCNC(=N)N [leupeptin, acetyl-leu-leu-arginal]",% Recovery vs 1st run (Time 0),[1],105.5%
same,"BNP, 1st run (Time 0)",[1],792.0 pg/mL
same,"BNP, 3 hours at 4° C.",[1],896.9 pg/mL
same,"BNP, 17 hours at 4° C.",[1],864.4 pg/mL
same,"BNP, 40 hours at 4° C.",[1],873.7 pg/mL
same,"BNP, 6 days at 4° C.",[1],835.9 pg/mL
same,"BNP, 3 hours at 4° C. before freezing",[1]; [4],751.3 pg/mL
same,"BNP, 24 hours at 4° C. before freezing",[1]; [4],696.1 pg/mL
same,"BNP, 48 hours at 4° C. before freezing",[1]; [4],672.6 pg/mL
same,"BNP, frozen w/o storage at 4° C.",[1]; [4],765.2 pg/mL
same,Recovery versus 1st run,"[1]; HP, spiked synthetic BNP, leupeptin 0.5 μg/ml, 48 hours at 4° C.",87.9%
same,"BNP, 3 hours at 4° C. before freezing",[1]; [5],828.3 pg/mL
same,"BNP, 24 hours at 4° C. before freezing",[1]; [5],807.5 pg/mL
same,"BNP, 48 hours at 4° C. before freezing",[1]; [5],784.4 pg/mL
same,"BNP, frozen w/o storage at 4° C.",[1]; [5],679.0 pg/mL
same,Recovery versus 1st run,"[1]; HP, spiked synthetic BNP, leupeptin 5 μg/ml, 48 hours at 4° C.",115.5%
same,"BNP, 3 hours at 4° C. before freezing",[1]; [6],795.6 pg/mL
same,"BNP, 24 hours at 4° C. before freezing",[1]; [6],763.0 pg/mL
same,"BNP, 48 hours at 4° C. before freezing",[1]; [6],798.3 pg/mL
same,"BNP, frozen w/o storage at 4° C.",[1]; [6],867.2 pg/mL
same,Recovery versus 1st run,"[1]; HP, spiked synthetic BNP, leupeptin 50 μg/ml, 48 hours at 4° C.",92.1%
same,Amount of BNP Present After 24 hr/4° C.,[1]; [7],2503.78
same,Amount of BNP Present After 90 hr/4° C.,[1]; [7],2133.75
same,"Amount of BNP Present Before Storage, Day 0",[1]; [7],2290.08
same,BNP Amount % Change,"[1]; IHP with synthetic BNP-32 added, each inhibitor 50 μg/ml, 90 hr/4° C. vs Day 0",−6.8%
same,"BNP, 1st run (Time 0)",[1]; [8],847.4 pg/mL
same,"BNP, 3 hours at 4° C.",[1]; [8],863.3 pg/mL
same,"BNP, 17 hours at 4° C.",[1]; [8],776.1 pg/mL
same,"BNP, 40 hours at 4° C.",[1]; [8],721.6 pg/mL
same,"BNP, 6 days at 4° C.",[1]; [8],373.6 pg/mL
same,Recovery versus 1st run,"[1]; Plasma A, spiked synthetic BNP, inhibitor 0.62 μg/ml, 6 days at 4° C.",44.1%
same,"BNP, 1st run (Time 0)",[1]; [9],841.7 pg/mL
same,"BNP, 3 hours at 4° C.",[1]; [9],873.5 pg/mL
same,"BNP, 17 hours at 4° C.",[1]; [9],859.4 pg/mL
same,"BNP, 40 hours at 4° C.",[1]; [9],795.5 pg/mL
same,"BNP, 6 days at 4° C.",[1]; [9],604.7 pg/mL
same,Recovery versus 1st run,"[1]; Plasma A, spiked synthetic BNP, inhibitor 1.85 μg/ml, 6 days at 4° C.",71.8%
same,"BNP, 1st run (Time 0)",[1]; [10],879.3 pg/mL
same,"BNP, 3 hours at 4° C.",[1]; [10],900.4 pg/mL
same,"BNP, 17 hours at 4° C.",[1]; [10],847.2 pg/mL
same,"BNP, 40 hours at 4° C.",[1]; [10],808.0 pg/mL
same,"BNP, 6 days at 4° C.",[1]; [10],722.8 pg/mL
same,Recovery versus 1st run,"[1]; Plasma A, spiked synthetic BNP, inhibitor 5.56 μg/ml, 6 days at 4° C.",82.2%
same,"BNP, 1st run (Time 0)",[1]; [11],886.7 pg/mL
same,"BNP, 3 hours at 4° C.",[1]; [11],849.8 pg/mL
same,"BNP, 17 hours at 4° C.",[1]; [11],904.5 pg/mL
same,"BNP, 40 hours at 4° C.",[1]; [11],903.1 pg/mL
same,"BNP, 6 days at 4° C.",[1]; [11],808.2 pg/mL
same,Recovery versus 1st run,"[1]; Plasma A, spiked synthetic BNP, inhibitor 16.7 μg/ml, 6 days at 4° C.",91.1%
same,"BNP, 1st run (Time 0)",[1]; [12],792.0 pg/mL
same,"BNP, 3 hours at 4° C.",[1]; [12],896.9 pg/mL
same,"BNP, 17 hours at 4° C.",[1]; [12],864.4 pg/mL
same,"BNP, 40 hours at 4° C.",[1]; [12],873.7 pg/mL
same,"BNP, 6 days at 4° C.",[1]; [12],835.9 pg/mL
same,Recovery versus 1st run,"[1]; Plasma A, spiked synthetic BNP, inhibitor 50 μg/ml, 6 days at 4° C.",105.5%
same,"BNP, 3 hours at 4° C. before freezing",[2]; leupeptin 0.5 μg/ml,129.0 pg/mL
same,"BNP, 24 hours at 4° C. before freezing",[2]; leupeptin 0.5 μg/ml,45.1 pg/mL
same,"BNP, 48 hours at 4° C. before freezing",[2]; leupeptin 0.5 μg/ml,11.4 pg/mL
same,"BNP, frozen w/o storage at 4° C.",[2]; leupeptin 0.5 μg/ml,227.7 pg/mL
same,Recovery versus 1st run,[2]; leupeptin 0.5 μg/ml,5.0%
same,"BNP, 3 hours at 4° C. before freezing",[2]; leupeptin 5 μg/ml,203.0 pg/mL
same,"BNP, 24 hours at 4° C. before freezing",[2]; leupeptin 5 μg/ml,135.6 pg/mL
same,"BNP, 48 hours at 4° C. before freezing",[2]; leupeptin 5 μg/ml,74.3 pg/mL
same,"BNP, frozen w/o storage at 4° C.",[2]; leupeptin 5 μg/ml,311.1 pg/mL
same,Recovery versus 1st run,[2]; leupeptin 5 μg/ml,23.9%
same,"BNP, 3 hours at 4° C. before freezing",[2]; leupeptin 50 μg/ml,274.2 pg/mL
same,"BNP, 24 hours at 4° C. before freezing",[2]; leupeptin 50 μg/ml,217.5 pg/mL
same,"BNP, 48 hours at 4° C. before freezing",[2]; leupeptin 50 μg/ml,156.6 pg/mL
same,"BNP, frozen w/o storage at 4° C.",[2]; leupeptin 50 μg/ml,297.9 pg/mL
same,Recovery versus 1st run,[2]; leupeptin 50 μg/ml,52.6%
same,"BNP, 3 hours at 4° C. before freezing",[3]; leupeptin 0.5 μg/ml,639.6 pg/mL
same,"BNP, 24 hours at 4° C. before freezing",[3]; leupeptin 0.5 μg/ml,537.2 pg/mL
same,"BNP, 48 hours at 4° C. before freezing",[3]; leupeptin 0.5 μg/ml,424.9 pg/mL
same,"BNP, frozen w/o storage at 4° C.",[3]; leupeptin 0.5 μg/ml,712.9 pg/mL
same,Recovery versus 1st run,[3]; leupeptin 0.5 μg/ml,59.6%
same,"BNP, 3 hours at 4° C. before freezing",[3]; leupeptin 5 μg/ml,672.2 pg/mL
same,"BNP, 24 hours at 4° C. before freezing",[3]; leupeptin 5 μg/ml,601.7 pg/mL
same,"BNP, 48 hours at 4° C. before freezing",[3]; leupeptin 5 μg/ml,498.9 pg/mL
same,"BNP, frozen w/o storage at 4° C.",[3]; leupeptin 5 μg/ml,845.0 pg/mL
same,Recovery versus 1st run,[3]; leupeptin 5 μg/ml,59.0%
same,"BNP, 3 hours at 4° C. before freezing",[3]; leupeptin 50 μg/ml,751.1 pg/mL
same,"BNP, 24 hours at 4° C. before freezing",[3]; leupeptin 50 μg/ml,707.0 pg/mL
same,"BNP, 48 hours at 4° C. before freezing",[3]; leupeptin 50 μg/ml,614.5 pg/mL
same,"BNP, frozen w/o storage at 4° C.",[3]; leupeptin 50 μg/ml,810.5 pg/mL
same,Recovery versus 1st run,[3]; leupeptin 50 μg/ml,75.8%
Aprotinin,% Recovery vs 1st run (Time 0),[1],21.1%
same,"BNP, 1st run (Time 0)",[1],792.4 pg/mL
same,"BNP, 3 hours at 4° C.",[1],849.7 pg/mL
same,"BNP, 17 hours at 4° C.",[1],680.0 pg/mL
same,"BNP, 40 hours at 4° C.",[1],490.9 pg/mL
same,"BNP, 6 days at 4° C.",[1],167.4 pg/mL
same,efficacy in stabilizing BNP (in words),[1],low efficacy

# Reference: patent US20040067889A1, “Stabilization of brain natriuretic peptide (BNP) in blood samples, methods and compositions related thereto” (priority 2002, published 2004)
